Test results: PubChem BioAssay AID1963440 (Molecular Pharmacology Branch, DTP, NCI, 2024)
Several values for one entry are separate records, joined by “and”; a condition that tells them apart may be missing. Equal entries are not always repeated.

Test system: NCI-H1417 complex spheroids, growth % test/control
Assay: Anticancer human tumor NCI-H1417 cell line growth inhibition [Asc];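 note: spheroids exposed to compounds for 7 days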;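 for viability, T/C: 100% = DMSO vehicle control wells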
Conditions: for viability, T/C: stronger effect = lower value
Method in brief: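 Complex spheroids combining tumor cells with HUVEC endothelial cells and human MSCs, at 37 degrees C, 5% CO2; agents tested alone or combined, half-log dilutions from at or near clinical Cmax, or 10 microM if Cmax unknown.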

Which results are given for O=C(c1cc(Cc2n[nH]c(=O)c3ccccc23)ccc1F)N1CCN(C(=O)C2CC2)CC1 + Cc1c(S(C)(=O)=O)c(-c2cc(F)cc(N3CCN(c4ccc(NS(=O)(=O)c5ccc(NC(CCN6CCC(C(=O)OCCCP(=O)(O)O)CC6)CSc6ccccc6)c(S(=O)(=O)C(F)(F)F)c5)cc4)CC3)c2)c(-c2ccc(Cl)cc2)n1C(C)C?
IC50 (curve of first compound, second compound 0.1 µM): 1.11 µM; IC50 (curve of first compound, second compound 0.316 µM): < 0.0316 µM; IC50 (curve of first compound, second compound 1 µM): < 0.0316 µM; IC50 (curve of first compound, second compound 3.16 µM): < 0.0316 µM; IC50 (curve of first compound, second compound 10 µM): < 0.0316 µM; viability, T/C (second compound 0.1 µM, first compound 0.0316 µM): 78.7%; viability, T/C (second compound 0.1 µM, first compound 0.1 µM): 78.5%; viability, T/C (second compound 0.1 µM, first compound 0.316 µM): 69.3%; viability, T/C (second compound 0.1 µM, first compound 1 µM): 52.8%; viability, T/C (second compound 0.1 µM, first compound 3.16 µM): 25.5%; viability, T/C (second compound 0.1 µM, first compound 10 µM): 5.06%; viability, T/C (second compound 0.316 µM, first compound 0.0316 µM): 44.5%; viability, T/C (second compound 0.316 µM, first compound 0.1 µM): 37%; viability, T/C (second compound 0.316 µM, first compound 0.316 µM): 35.1%; viability, T/C (second compound 0.316 µM, first compound 1 µM): 23.2%; viability, T/C (second compound 0.316 µM, first compound 3.16 µM): 7.41%; viability, T/C (second compound 0.316 µM, first compound 10 µM): 3.61%; viability, T/C (second compound 1 µM, first compound 0.0316 µM): 10.6%; viability, T/C (second compound 1 µM, first compound 0.1 µM): 14.2%; viability, T/C (second compound 1 µM, first compound 0.316 µM): 8.49%; viability, T/C (second compound 1 µM, first compound 1 µM): 5.49%; viability, T/C (second compound 1 µM, first compound 3.16 µM): 2.71%; viability, T/C (second compound 1 µM, first compound 10 µM): 3.64%; viability, T/C (second compound 3.16 µM, first compound 0.0316 µM): 2.9%; viability, T/C (second compound 3.16 µM, first compound 0.1 µM): 2.62%; viability, T/C (second compound 3.16 µM, first compound 0.316 µM): 2.54%; viability, T/C (second compound 3.16 µM, first compound 1 µM): 2.33%; viability, T/C (second compound 3.16 µM, first compound 3.16 µM): 2.43%; viability, T/C (second compound 3.16 µM, first compound 10 µM): 2.96%; viability, T/C (second compound 10 µM, first compound 0.0316 µM): 2.71%; viability, T/C (second compound 10 µM, first compound 0.1 µM): 2.63%; viability, T/C (second compound 10 µM, first compound 0.316 µM): 2.54%; viability, T/C (second compound 10 µM, first compound 1 µM): 1.96%; viability, T/C (second compound 10 µM, first compound 3.16 µM): 2.66%; viability, T/C (second compound 10 µM, first compound 10 µM): 3.21%

With C=C(F)C(=O)N1CCN(c2nc(OCC3CCCN3C)nc3c2CCN(c2cccc4cccc(Cl)c24)C3)CC1CC#N (centres undefined) as the molecule, how does the viability, T/C (compound 0.0316 µM) read?
The viability, T/C was 98.9% and 103% and 94.2%.

What about the viability, T/C (compound 0.1 µM) of the same molecule?
The viability, T/C was 106% and 101% and 88%.

What about the viability, T/C (compound 0.316 µM) of the same molecule?
The viability, T/C was 96.4% and 99.8% and 99.7%.

And the viability, T/C (compound 1 µM)?
The viability, T/C was 90.7% and 84.8% and 90.3%.

And the viability, T/C (compound 3.16 µM)?
Its viability, T/C is 59.8% and 57.5% and 74.3%.

What about the viability, T/C (compound 10 µM) of the same molecule?
Its viability, T/C is 0.26% and 0.27% and 0.31%.

What about the IC50 (curve of compound) of the same molecule?
Its IC50 is 3.83 µM and 3.66 µM and 4.61 µM.

How did the viability, T/C (compound 0.00949 µM) turn out when CCN1C(C(=O)NC23CCC(C(=O)O)(CC2)CC3)C(c2cccc(Cl)c2F)C2(C(=O)Nc3cc(Cl)ccc32)C12CCCCC2 (centres undefined) was run?
The viability, T/C was 102% and 109%.

And the viability, T/C (compound 0.03 µM)?
Its viability, T/C is 102% [middle of 15 runs].

And the viability, T/C (compound 0.0949 µM)?
Its viability, T/C is 101% [middle of 15 runs].

And the viability, T/C (compound 0.3 µM)?
The viability, T/C was 97.9% [middle of 15 runs].

And the viability, T/C (compound 3 µM)?
The viability, T/C was 93.4% [middle of 15 runs].

What about the IC50 (compound alone, run of 10/11/2022) of the same molecule?
The IC50 was greater than 3 µM.

And the IC50 (curve of compound)?
The IC50 was greater than 3 µM.
